Tested on: Macrophage RAW264.7
Test: NO production by macrophage RAW264.7 stimulated with polysaccharide (Griess reagent)
Format: cell-based
Conditions: RAW264.7 cells, positive control 1 μg/mL lipopolysaccharide (LPS), 24 h incubation, supernatant, 540 nm
Protocol: Macrophage RAW264.7 is stimulated using Fomes officinalis polysaccharides prepared in Embodiments 1-3, and the concentrations of NO produced therefrom are determined, and the results are shown in Table 1. Specific experimental methods: 100 microliters (L) of RAW264.7 cells (1×10^6 cells/mL) are added to 96 microtiter plates and pre-cultured in a 37° C. 5% CO2 incubator for 24 hours (h). The supernatant is discarded, and 200 μL of 5 micrograms per milliliter (μg/mL) polysaccharide solution is added to the cells, the culture solution is used as a negative control, and 1 μg/mL lipopolysaccharide (LPS) is used as a positive control, then the cells are incubated for 24 h. To determine the NO level in the supernatant, 100 μL of supernatant is added with 100 μL of Griess reagent, and the absorbance is measured at 540 nm after 10 min of reaction at room temperature and protected from light using an enzyme labeler (Biotek instruments, Winooski, VT, USA), and the NO yield is calculated by substituting the absorbance value of the samples into the standard curve, using sodium nitrite as the standard.

lipopolysaccharide [Positive control group]
NO yield: 41.06 µmol/L

Source: patent US20240218084A1, “METHOD FOR PURIFYING FOMES OFFICINALIS POLYSACCHARIDE BY SEQUENTIAL SIMULATED MOVING CHROMATOGRAPHY” (HEILONGJIANG BAYI AGRICULTURAL UNIVERSITY, priority 2022, published 2024)
